Assay in all cases: inhibition of tumour cell growth, NCI panel, 48 h
The test system of test [1] is HOP-92 NSCLC.
Test [2] has as its system IGROV1 ovarian.
In test [3] the test system is DU-145 prostate.
Test [4] relates to HCT-116 colon.
In test [5] the test system is SNB-19 CNS.
In test [6] the test system is HCT-15 colon.
Test [7] concerns RPMI-8226 leukemia.
Test [8] has as its system SK-OV-3 ovarian.
The subject of test [9] is HOP-62 NSCLC.
Test [10] has as its system UACC-257 melanoma.
The test system of test [11] is MCF7 breast.
Test [12] concerns MDA-MB-435.
Test [13] deals with SK-MEL-5 melanoma.
Test [14] relates to T-47D breast.
In test [15] the test system is NCI-H226 lung.
The test system of test [16] is OVCAR-8 ovarian.
The subject of test [17] is BT-549 breast.
Test [18] has as its system MALME-3M melanoma.
Test [19] has as its system HS 578T breast.
Test [20] has as its system MDA-N.

Molecules are shown by their SMILES.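 Protocol summary: plate cells (96-well), add compound at 5 concentrations, incubate 48 h, interpolate endpoints linearly. TGI: total growth inhibition.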 Bounds are passed on as bounds.

For the compound `CC(=O)NC1C(OC2C(CO)OC(OCC3OC(n4ccc(N)nc4=O)C(O)C3O)C(NC(C)=O)C2O)OC(CO)C(O)C1O` (stereo unspecified), the TGI in test [1], in test [2], in test [3], in test [4], in test [5] and in [6] was more than 100 µM each time. Moreover, the TGI in [7], in [8], in test [9], in test [10], in test [11] and in test [12] was more than 100 µM each time. For the same compound, the TGI in test [13], in test [14], in test [15], in test [16], in test [17] and in test [18] was more than 100 µM throughout. In test [19], this compound showed a TGI of more than 100 µM.
Turning to `CCOC(=O)C(C(=O)OCC)=C1N[C@H](C(=O)OCC)CS1`, the TGI in test [2], in [4], in [5], in test [6], in [7] and in test [9] was more than 100 µM each time. The TGI in [10], in test [13], in test [15], in test [16] and in [18] was more than 100 µM throughout.
As for `N#C/C(C(=S)Nc1ccccc1)=C(/N)N1CCCC1`, the TGI in [1], in [2], in test [3], in test [4], in test [5] and in [6] was more than 100 µM in each case. Besides, the TGI in [7], in test [9], in test [10], in [11], in test [12] and in test [13] was more than 100 µM each time. Moreover, the TGI in test [20], in test [15], in [16], in test [18] and in test [19] was more than 100 µM each time.
As for `CC(C)[Si](OC1=C(c2ccccc2)C(NC(=O)/C=C/c2ccc([N+](=O)[O-])cc2)CCC1)(C(C)C)C(C)C` (stereo unspecified), the TGI in test [1], in [2], in [3], in [4], in test [5] and in test [6] was more than 100 µM each time. Besides, the TGI in test [7], in test [8], in test [9], in test [10], in [11] and in [12] was more than 100 µM throughout. For the same compound, the TGI in [13], in test [14], in test [15], in test [16], in [17] and in test [18] was more than 100 µM in each case. For the same compound, the TGI in [19] was more than 100 µM.
Consider `CC(=O)c1ccc(NC(=O)C(=O)C(C(=O)c2ccc(Cl)c(Cl)c2)C2OC(=O)c3ccccc32)cc1` (stereo unspecified), for which the TGI in test [1] was 78.4 µM; in [2] it was 65.5 µM; in test [4] it was 25.8 µM; in test [5], more than 100 µM; in [6], 34.7 µM; in [8] it was more than 100 µM. Moreover, the TGI is 45.3 µM in [9]; more than 100 µM in [10]; 24.6 µM in test [15]; 27.6 µM in [16]; 24.9 µM in test [18].
As to `CCCCCNC(=O)c1c(O)[nH]c(=S)[nH]c1=O`, the TGI in [1], in test [2], in [4], in [5], in test [6] and in [7] was more than 100 µM in each case. Further, the TGI in [8], in test [9], in test [10], in test [13], in test [15] and in [16] was more than 100 µM in each case. Further, the TGI in test [18] was more than 100 µM.
For `COc1ccccc1C(N)c1ccccc1` (stereo unspecified), the TGI in test [1], in test [2], in [4], in test [5], in test [6] and in test [7] was more than 100 µM throughout. Also, the TGI in [8], in test [9], in test [10], in [13], in test [15] and in test [16] was more than 100 µM each time. The same compound returned a TGI in test [18] of more than 100 µM.
Turning to `CN(C)C1(N(C)C)Oc2c(c(=O)n(C)c(=O)n2C)C(c2ccccc2Br)C1(F)F` (stereo unspecified), the TGI in [1], in test [3], in [4], in [5], in test [6] and in test [7] was more than 100 µM throughout. Further, the TGI in test [8], in test [9], in [10], in [11], in test [12] and in test [13] was more than 100 µM in each case. The TGI in [14], in [15] and in test [17] was more than 100 µM in each case.
For the compound `CS/C(=N\S(=O)(=O)c1cc(C)c(Cl)cc1Cl)NNc1cnc2ccccc2n1`, the TGI in [1], in [2], in [3], in test [4], in [5] and in [6] was more than 100 µM each time. Also, the TGI in test [8], in test [9], in test [10], in test [11], in [12] and in test [13] was more than 100 µM throughout. Also, the TGI in [14], in test [15], in test [16], in [17], in test [18] and in test [19] was more than 100 µM in each case.

The values above are taken from PubChem BioAssay (NCI).
